Reference: patent US8536332B2, “Modulating signal transduction pathways with substituted pyridol [2,3-b] pyrazines” (Aeterna Zentaris GmbH, priority 2007, dated 2013)

melting point	SMILES
232 °C	CCNC(=S)Nc1ccc2ncc(Nc3ccccc3OC)nc2n1 [Compound 332, 1-Ethyl-3-[3-(2-methoxy-phenylamino)-pyrido[2,3-b]pyrazin-6-yl]-thiourea]
255 °C	CCNC(=O)Nc1ccc2ncc(Nc3cc(C(C)(C)C)ccc3O)nc2n1 [Compound 336, 1-[3-(5-tert-Butyl-2-hydroxy-phenylamino)-pyrido[2,3-b]pyrazin-6-yl]-3-ethyl-urea]
215 °C	CCNC(=O)Nc1ccc2ncc(Nc3cccc(N(C)C)c3)nc2n1 [Compound 374, 1-[3-(3-Dimethylamino-phenylamino)-pyrido[2,3-b]pyrazin-6-yl]-3-ethyl-urea]
225 °C	CCNC(=O)Nc1ccc2ncc(Nc3cccc(C)c3C)nc2n1 [Compound 378, 1-[3-(2,3-Dimethyl-phenylamino)-pyrido[2,3-b]pyrazin-6-yl]-3-ethyl-urea]
272 °C	CCNC(=O)Nc1ccc2ncc(Nc3ccc(O)cc3C)nc2n1 [Compound 394, 1-Ethyl-3-[3-(4-hydroxy-2-methyl-phenylamino)-pyrido[2,3-b]pyrazin-6-yl]-urea]
210 °C	CCNC(=O)Nc1ccc2ncc(Nc3ccc(C)cc3C)nc2n1 [Compound 398, 1-[3-(2,4-Dimethyl-phenylamino)-pyrido[2,3-b]pyrazin-6-yl]-3-ethyl-urea]
215 °C	CCNC(=S)Nc1ccc2ncc(Nc3ccc(C)cc3C)nc2n1 [Compound 399, 1-[3-(2,4-Dimethyl-phenylamino)-pyrido[2,3-b]pyrazin-6-yl]-3-ethyl-thiourea]
265 °C	CCNC(=S)Nc1ccc2ncc(Nc3ccc(F)c(F)c3)nc2n1 [Compound 433, 1-[3-(3,4-Difluoro-phenylamino)-pyrido[2,3-b]pyrazin-6-yl]-3-ethyl-thiourea]
324 to 329 °C	CCNC(=O)Nc1ccc2ncc(Nc3ccc(Cl)c(C(=O)O)c3)nc2n1 [Compound 434, 2-Chloro-5-[6-(3-ethyl-ureido)-pyrido[2,3-b]pyrazin-3-ylamino]-benzoic acid]
220 °C	CCNC(=S)Nc1ccc2ncc(Nc3ccc(O)c(Cl)c3)nc2n1 [Compound 441, 1-[3-(3-Chloro-4-hydroxy-phenylamino)-pyrido[2,3-b]pyrazin-6-yl]-3-ethyl-thiourea]
270 °C	CCNC(=S)Nc1ccc2ncc(Nc3cc(Cl)cc(Cl)c3)nc2n1 [Compound 443, 1-[3-(3,5-Dichloro-phenylamino)-pyrido[2,3-b]pyrazin-6-yl]-3-ethyl-thiourea]
222 °C	CCNC(=O)Nc1ccc2ncc(Nc3cc(C)c(O)cc3C)nc2n1 [Compound 446, 1-Ethyl-3-[3-(4-hydroxy-2,5-dimethyl-phenylamino)-pyrido[2,3-b]pyrazin-6-yl]-urea]
277 °C	CCNC(=S)Nc1ccc2ncc(Nc3cc(Cl)c(Cl)c(Cl)c3)nc2n1 [Compound 465, 1-Ethyl-3-[3-(3,4,5-trichloro-phenylamino)-pyrido[2,3-b]pyrazin-6-yl]-thiourea]
232 °C	CCNC(=S)Nc1ccc2ncc(Nc3ccc(C(C)=O)cc3)nc2n1 [Compound 467, 1-[3-(4-Acetyl-phenylamino)-pyrido[2,3-b]pyrazin-6-yl]-3-ethyl-thiourea]
260 °C	CCNC(=S)Nc1ccc2ncc(Nc3ccc(F)c([N+](=O)[O-])c3)nc2n1 [Compound 489, 1-Ethyl-3-[3-(4-fluoro-3-nitro-phenylamino)-pyrido[2,3-b]pyrazin-6-yl]-thiourea]
250 °C	CCNC(=S)Nc1ccc2ncc(Nc3ccc(O)c([N+](=O)[O-])c3)nc2n1 [Compound 491, 1-Ethyl-3-[3-(4-hydroxy-3-nitro-phenylamino)-pyrido[2,3-b]pyrazin-6-yl]-thiourea]
243 °C	CCCNC(=S)Nc1ccc2ncc(Nc3cc(OC)c(OC)c(OC)c3)nc2n1 [Compound 501, 1-Propyl-3-[3-(3,4,5-trimethoxy-phenylamino)-pyrido[2,3-b]pyrazin-6-yl]-thiourea]
233 to 235 °C	COc1cc(-c2ccc3ncc(NC(=S)NC4CCCC4)nc3n2)ccc1O [Compound 519, 1-Cyclopentyl-3-[6-(4-hydroxy-3-methoxy-phenyl)-pyrido[2,3-b]pyrazin-3-yl]-thiourea]
261 to 262 °C	C=CCNC(=S)Nc1cnc2ccc(-c3ccc(O)c(OC)c3)nc2n1 [Compound 521, 1-Allyl-3-[6-(4-hydroxy-3-methoxy-phenyl)-pyrido[2,3-b]pyrazin-3-yl]-thiourea]
253 to 254 °C	COc1cc(-c2ccc3ncc(NC(=S)NC4CCCCC4)nc3n2)ccc1O [Compound 524, 1-Cyclohexyl-3-[6-(4-hydroxy-3-methoxy-phenyl)-pyrido[2,3-b]pyrazin-3-yl]-thiourea]
224 to 226 °C	COc1cc(-c2ccc3ncc(NC(=O)Nc4ccc(Cl)cc4)nc3n2)ccc1O [Compound 529, 1-(4-Chloro-phenyl)-3-[6-(4-hydroxy-3-methoxy-phenyl)-pyrido[2,3-b]pyrazin-3-yl]-urea]

melting point	SMILES
265 to 268 °C	CCCNC(=O)Nc1cnc2ccc(-c3cc(Cl)c(O)c(Cl)c3)nc2n1 [Compound 551, 1-[6-(3,5-Dichloro-4-hydroxy-phenyl)-pyrido[2,3-b]pyrazin-3-yl]-3-propyl-urea]
259 to 261 °C	CC(C)NC(=O)Nc1cnc2ccc(-c3cc(Cl)c(O)c(Cl)c3)nc2n1 [Compound 552, 1-[6-(3,5-Dichloro-4-hydroxy-phenyl)-pyrido[2,3-b]pyrazin-3-yl]-3-isopropyl-urea]
259 to 262 °C	CN(C)c1ccc(NC(=O)Nc2cnc3ccc(-c4cc(Cl)c(O)c(Cl)c4)nc3n2)cc1 [Compound 555, 1-[6-(3,5-Dichloro-4-hydroxy-phenyl)-pyrido[2,3-b]pyrazin-3-yl]-3-(4-dimethylamino-phenyl)-urea]
261 to 263 °C	O=C(Nc1cnc2ccc(-c3cc(Cl)c(O)c(Cl)c3)nc2n1)NC1CCCCCCC1 [Compound 556, 1-Cyclooctyl-3-[6-(3,5-dichloro-4-hydroxy-phenyl)-pyrido[2,3-b]pyrazin-3-yl]-urea]
247 to 249 °C	CNC(=O)Nc1cnc2ccc(-c3cc(Cl)c(O)c(Cl)c3)nc2n1 [Compound 557, 1-[6-(3,5-Dichloro-4-hydroxy-phenyl)-pyrido[2,3-b]pyrazin-3-yl]-3-methyl-urea]
272 to 275 °C	O=C(Nc1cnc2ccc(-c3cc(Cl)c(O)c(Cl)c3)nc2n1)NC1CCCCC1 [Compound 558, 1-Cyclohexyl-3-[6-(3,5-dichloro-4-hydroxy-phenyl)-pyrido[2,3-b]pyrazin-3-yl]-urea]
289 to 291 °C	O=C(Nc1ccc(F)cc1)Nc1cnc2ccc(-c3cc(Cl)c(O)c(Cl)c3)nc2n1 [Compound 559, 1-[6-(3,5-Dichloro-4-hydroxy-phenyl)-pyrido[2,3-b]pyrazin-3-yl]-3-(4-fluoro-phenyl)-urea]
253 to 255 °C	O=C(Nc1cnc2ccc(-c3cc(Cl)c(O)c(Cl)c3)nc2n1)Nc1cccs1 [Compound 560, 1-[6-(3,5-Dichloro-4-hydroxy-phenyl)-pyrido[2,3-b]pyrazin-3-yl]-3-thiophen-2-yl-urea]
> 300 °C	O=C(Nc1cnc2ccc(-c3cc(Cl)c(O)c(Cl)c3)nc2n1)Nc1ccccc1[N+](=O)[O-] [Compound 561, 1-[6-(3,5-Dichloro-4-hydroxy-phenyl)-pyrido[2,3-b]pyrazin-3-yl]-3-(2-nitro-phenyl)-urea]
257 to 260 °C	Cc1noc(C)c1NC(=O)Nc1cnc2ccc(-c3cc(Cl)c(O)c(Cl)c3)nc2n1 [Compound 562, 1-[6-(3,5-Dichloro-4-hydroxy-phenyl)-pyrido[2,3-b]pyrazin-3-yl]-3-(3,5-dimethyl-isoxazol-4-yl)-urea]
280 to 282 °C	O=C(NCCc1ccccc1)Nc1cnc2ccc(-c3cc(Cl)c(O)c(Cl)c3)nc2n1 [Compound 564, 1-[6-(3,5-Dichloro-4-hydroxy-phenyl)-pyrido[2,3-b]pyrazin-3-yl]-3-phenethyl-urea]
> 300 °C	O=C(Nc1ccc(N2C(=O)C=CC2=O)cc1)Nc1cnc2ccc(-c3cc(Cl)c(O)c(Cl)c3)nc2n1 [Compound 565, 1-[6-(3,5-Dichloro-4-hydroxy-phenyl)-pyrido[2,3-b]pyrazin-3-yl]-3-[4-(2,5-dioxo-2,5-dihydro-pyrrol-1-yl)-phenyl]-urea]
233 to 236 °C	COc1ccc(-c2ccc3ncc(NC(=O)NC(C)C)nc3n2)cc1OC [Compound 567, 1-[6-(3,4-Dimethoxy-phenyl)-pyrido[2,3-b]pyrazin-3-yl]-3-isopropyl-urea]
230 to 233 °C	COc1ccc(-c2ccc3ncc(NC(=O)NC(C)(C)C)nc3n2)cc1OC [Compound 568, 1-tert-Butyl-3-[6-(3,4-dimethoxy-phenyl)-pyrido[2,3-b]pyrazin-3-yl]-urea]
262 to 263 °C	COc1ccc(-c2ccc3ncc(NC(=O)Nc4ccc(N(C)C)cc4)nc3n2)cc1OC [Compound 569, 1-[6-(3,4-Dimethoxy-phenyl)-pyrido[2,3-b]pyrazin-3-yl]-3-(4-dimethylamino-phenyl)-urea]
246 to 248 °C	CCCNC(=O)Nc1cnc2ccc(-c3ccc(OC)c(OC)c3)nc2n1 [Compound 570, 1-[6-(3,4-Dimethoxy-phenyl)-pyrido[2,3-b]pyrazin-3-yl]-3-propyl-urea]
262 to 264 °C	COc1ccc(-c2ccc3ncc(NC(=O)NC4CCCCC4)nc3n2)cc1OC [Compound 571, 1-Cyclohexyl-3-[6-(3,4-dimethoxy-phenyl)-pyrido[2,3-b]pyrazin-3-yl]-urea]
269 to 271 °C	COc1ccc(-c2ccc3ncc(NC(=O)Nc4ccc(F)cc4)nc3n2)cc1OC [Compound 572, 1-[6-(3,4-Dimethoxy-phenyl)-pyrido[2,3-b]pyrazin-3-yl]-3-(4-fluoro-phenyl)-urea]
265 to 267 °C	COc1ccc(-c2ccc3ncc(NC(=O)Nc4c(C)noc4C)nc3n2)cc1OC [Compound 573, 1-[6-(3,4-Dimethoxy-phenyl)-pyrido[2,3-b]pyrazin-3-yl]-3-(3,5-dimethyl-isoxazol-4-yl)-urea]
236 to 238 °C	C=CCNC(=O)Nc1cnc2ccc(-c3ccc(OC)c(OC)c3)nc2n1 [Compound 575, 1-Allyl-3-[6-(3,4-dimethoxy-phenyl)-pyrido[2,3-b]pyrazin-3-yl]-urea]
